From ChEMBL document CHEMBL5726855, “Substituted benzylindazoles for use as Bub1 kinase inhibitors in the treatment of hyperproliferative diseases” (2019)

These compounds were tested against Mitotic checkpoint serine/threonine-protein kinase BUB1 (Homo sapiens, UniProt O43683) (assay: To this end, 100-fold concentrated compound solutions (in DMSO) were previously prepared by serial dilution (1:3.4) of 2 mM stocks in a clear low volume 384-well source microtiter plate (Greiner Bio-One, Frickenhausen, Germany), from which 50 nl of compounds were transferred into a black low volume test microtiter plate from the same supplier. […] The resulting mixture (5 μl final volume) was incubated at 22° C. during 60 min., and the reaction was stopped by the addition of 5 μl of an aqueous EDTA-solution (50 mM EDTA, in 100 mM HEPES pH 7.5 and 0.2% (w/v) bovine serum albumin) which also contained the TR-FRET detection reagents (0.2 μM streptavidin-XL665 [Cisbio Bioassays, Codolet, France] and 1 nM anti-phosho-Serine antibody [Merck Millipore, cat. #35-001] and 0.4 nM LANCE EU-W1024 labeled anti-mouse IgG antibody [Perkin-Elmer, product no. AD0077, alternatively a Terbium-cryptate-labeled anti-mouse IgG antibody from Cisbio Bioassays can be used]). The stopped reaction mixture was further incubated 1 h at 22° C. in order to allow the formation of complexes between peptides and detection reagents. Subsequently, the amount of product was evaluated by measurement of the resonance energy transfer from the Eu-chelate-antlbody complex recognizing the Phosphoserlne residue to the streptavidin-XL665 bound to the biotin moiety of the peptide. […] IC50 values were calculated by fitting the normalized inhibition data to a 4-parameter logistic equation (Minimum, Maximum, IC50, Hill; Y=Max+(Min−Max)/(1+(X/IC50)Hill)) using a Bayer-proprietary analysis software.).
Mitotic checkpoint serine/threonine-protein kinase BUB1, sequence (O43683 whole entry): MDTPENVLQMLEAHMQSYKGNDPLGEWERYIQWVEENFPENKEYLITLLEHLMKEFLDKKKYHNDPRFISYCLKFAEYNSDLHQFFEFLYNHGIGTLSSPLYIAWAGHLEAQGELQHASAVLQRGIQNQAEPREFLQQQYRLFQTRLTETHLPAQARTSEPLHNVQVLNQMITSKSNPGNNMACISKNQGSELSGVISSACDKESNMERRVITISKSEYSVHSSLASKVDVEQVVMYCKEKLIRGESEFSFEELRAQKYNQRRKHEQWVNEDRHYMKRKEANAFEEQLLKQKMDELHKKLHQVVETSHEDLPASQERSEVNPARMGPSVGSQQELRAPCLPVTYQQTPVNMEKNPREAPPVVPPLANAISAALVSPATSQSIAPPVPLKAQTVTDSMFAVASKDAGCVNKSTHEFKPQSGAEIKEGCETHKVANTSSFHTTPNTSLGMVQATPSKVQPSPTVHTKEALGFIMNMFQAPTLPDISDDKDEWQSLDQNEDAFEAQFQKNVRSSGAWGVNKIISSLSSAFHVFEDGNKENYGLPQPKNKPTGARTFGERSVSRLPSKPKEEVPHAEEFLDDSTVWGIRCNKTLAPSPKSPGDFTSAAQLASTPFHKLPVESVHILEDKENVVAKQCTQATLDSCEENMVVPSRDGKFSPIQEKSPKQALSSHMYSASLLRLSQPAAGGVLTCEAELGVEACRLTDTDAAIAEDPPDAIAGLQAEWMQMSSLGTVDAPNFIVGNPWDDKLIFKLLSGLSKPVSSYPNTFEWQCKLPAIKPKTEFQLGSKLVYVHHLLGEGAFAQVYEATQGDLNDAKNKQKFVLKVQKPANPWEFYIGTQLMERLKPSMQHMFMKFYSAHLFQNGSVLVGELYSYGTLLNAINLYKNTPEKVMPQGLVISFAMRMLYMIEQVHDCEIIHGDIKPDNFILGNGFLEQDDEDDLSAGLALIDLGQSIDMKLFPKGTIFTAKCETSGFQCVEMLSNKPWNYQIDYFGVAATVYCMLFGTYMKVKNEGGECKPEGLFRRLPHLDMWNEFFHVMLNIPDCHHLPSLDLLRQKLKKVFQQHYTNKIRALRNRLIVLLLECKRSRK

SMILES | IC50 [nM]
CCOc1cc(F)c(Cn2nc(-c3ncc(OCCSC)c(Nc4ccncc4)n3)c3ccccc32)c(F)c1 | 14
CCOc1cc(F)c(Cn2nc(-c3ncc(OCCOCCO)c(Nc4ccncc4)n3)c3ccccc32)c(F)c1 | 7.4
COc1cnc(-c2nn(Cc3c(F)cc(F)cc3F)c3ccccc23)nc1N(Cc1c(F)cc(F)cc1F)c1ccncc1 | 890
COc1cnc(-c2nn(Cc3ccc(C#N)cc3F)c3ccccc23)nc1N(Cc1ccc(C#N)cc1F)c1ccncc1 | 1100
COc1cnc(-c2nn(Cc3c(F)c(F)c(OCC(F)(F)F)c(F)c3F)c3ccccc23)nc1N(Cc1c(F)c(F)c(OCC(F)(F)F)c(F)c1F)c1ccncc1 | 3200
